Columns and labels:
[1] = system: S. epidermidis ATCC 35984 biofilms; test: Microtiter plate assay of S. epidermidis biofilms (crystal violet, MBEC); format: cell-based; conditions: 6-h-old (immature) biofilms
Protocol: The effects of the derivatives on immature (6-h-old) biofilms and mature (24-h-old) biofilms of S. epidermidis ATCC 35984 were detected by using a semiquantitative microtiter plate assay (Stepanovic et al. [2007]). An overnight culture of bacteria was inoculated 1:200 into TSB medium containing 0.25 % glucose and statically incubated in a polystyrene 96-well plate (200 μl per well) at 37 °C for 6 or 24 h. The medium containing any nonadherent bacteria was then removed, and serial dilutions of derivatives in 200 μl fresh TSB were added to the wells and incubated for another 16 h at 37 °C. The wells were then washed gently three times with phosphate buffered saline (PBS), air-dried, fixed with methanol, and stained with 2 % (w/v) crystal violet. The staining was visually assessed and scanned at 570 nm using a 96-well plate spectrophotometer (DTX880, Beckman Coulter, USA), and the minimal biofilm eradication concentration (MBEC) was measured (Ceri et al. [1999]).

[2] = system: S. epidermidis ATCC 35984; test: Kinetics of killing planktonic S. epidermidis; format: cell-based; conditions: for effect on growth in initial treatment phase: 1/4MIC (0.38 μM) and 1/2MIC (0.75 μM), 2 to 6 h
Protocol: An overnight culture of S. epidermidis ATCC 35984 was inoculated into 20 ml of fresh MH broth at a 1:200 dilution (10^6 CFU/ml). […] Every 2 h, 100 μl of the culture was diluted and spread on agar plates. Viable bacteria (CFU) were counted and the rate and extent of killing were determined by plotting CFU/ml against time (D’Arezzo et al. [2012]; Lee et al. [2008]). This experiment was independently repeated three times.

[3] = system: 24-h biofilms of S. epidermidis ATCC 35984; test: Rabbit subcutaneous S. epidermidis biofilm infection model; format: in vivo, New Zealand White rabbits; conditions: 6.3 μM (4 × MIC), 1 ml local injection at 0, 24, 48 h; 72 h exposure
Protocol: To test the effectiveness in vivo of H2-74 and H2-81, 24-h biofilms of S. epidermidis grown on polyethylene disks were imbedded subcutaneously into the New Zealand White rabbits and treated with the derivatives for 72 h in a modification of the method used previously (He et al. [2011]). Disks were cut from polyethylene 96-well plates (8 mm diameter, 1 mm thickness), sterilized with 75 % ethanol and placed in a Petri dish (100 mm diameter). An overnight culture of S. epidermidis ATCC 35984 (20 ml) was inoculated into the dish and incubated at 37 °C for 24 h. The disks covered with biofilms were then implanted subcutaneously in female New Zealand White rabbits (2.0–2.5 kg) that had been anesthetized with pentobarbital sodium (5 mg/kg i.v.). Four incisions (10 mm) were made on the back of the rabbit along the spine bilaterally after removal of fur, and the sub cutis was carefully dissected to form a 2-cm × 3-cm cavity. Two biofilm-covered polyethylene disks were implanted into each cavity, and to minimize the effect of between-animal variation, four different treatments were given locally to each rabbit.
Vancomycin (128 mg/l) and 0.1 % DMSO were administered as the controls. Twenty-four hours after the last treatment, the rabbits were euthanized and the implants were taken out with sterile forceps. Biofilms were scraped from the disks, and the viable bacteria were determined by CFU counting, as previously described (He et al. [2011]). All animals were housed and used in compliance with the guidelines of the Institute of Animal Care and Use Committee, and the protocol was approved by the committee.

| Compound | MBEC [1] [µM] | effect on growth in initial treatment phase [2] | viable cells ([2]; 2 × MIC (3.1 μM), 12 h) | viable cells ([2]; 4 × MIC (6.3 μM), 10 h) | CFU remaining ([2]; 4 × MIC, 10 h, as restated in discussion) | viable bacteria recovered from implanted disks [3] [log10 CFU/cm^2] |
| --- | --- | --- | --- | --- | --- | --- |
| O=C(O)c1ccc(-c2ccc(C=C3SC(=Nc4ccc(F)cc4)N(c4ccc(F)cc4)C3=O)s2)cc1 [H2-60, 4-{5-{{3-(4-fluorophenyl)-2-[(4-fluorophenyl)imino]-4-oxothiazolidin-5-ylidene}methyl}thiophene-2-yl}benzoic acid] | 12.5 | – | – | – | – | – |
| O=C(O)c1ccc(-c2ccc(/C=C3\S/C(=N\c4ccccc4)N(c4ccc(F)cc4)C3=O)s2)cc1 [H2-81, 4-{5-{{3-(4-fluorophenyl)-2-[(4-phenyl)imino]-4-oxothiazolidin-5-ylidene}methyl}thiophene-2-yl}benzoic acid] | 6.3 | inhibited the growth of S. epidermidis | less than 3 × 10^2 CFU/ml | < 10 CFU/ml | ~ 10 CFU | 2.18 |
| CCc1ccccc1/N=C1\S/C(=C\c2ccc(OCC(=O)O)c(OC)c2)C(=O)N1c1ccccc1CC [Compound 2, {2-{4-{3-(2-ethylphenyl)-2-[(2-ethylphenyl)imino]-4-oxothiazolidin-5-ylidene}methyl}-2-methoxyphenoxy}acetic acid] | 100.0 | – | – | – | – | – |
| O=C(O)COc1ccc(C=C2SC(=Nc3ccc(Cl)cc3)N(c3ccc(Cl)cc3)C2=O)cc1 [H2-74, 2-{4-{[3-(4-chlorophenyl)-2-[(4-chlorophenyl)imino]-4-oxothiazolidin-5-ylidene}methyl}phenoxy}acetic acid] | 50.0 | inhibited the growth of S. epidermidis | 3.2 × 10^3 CFU/ml | more than 3.1 × 10^2 CFU/ml | – | 2.91 ± 0.42 |
| O=C(O)c1ccc(-c2ccc(C=C3SC(=Nc4ccc(Cl)cc4)N(c4ccc(Cl)cc4)C3=O)o2)cc1 [H2-39, 4-{5-{{3-(4-chlorophenyl)-2-[(4-chlorophenyl)imino]-4-oxothiazolidin-5-ylidene}methyl}furan-2-yl}benzoic acid] | 12.5 | – | – | – | – | – |
| O=C(O)c1cccc(-c2ccc(C=C3SC(=Nc4ccc(Cl)cc4)N(c4ccc(Cl)cc4)C3=O)o2)c1 [H2-38, 3-{5-{{3-(4-chlorophenyl)-2-[(4-chlorophenyl)imino]-4-oxothiazolidin-5-ylidene}methyl}furan-2-yl}benzoic acid] | 12.5 | – | – | – | – | – |
| O=C(O)c1ccc(-c2ccc(/C=C3\S/C(=N\c4ccccc4)N(c4ccc(Cl)cc4)C3=O)o2)cc1 [H2-57, 4-{5-{{3-(4-chlorophenyl)-2-[(4-phenyl)imino]-4-oxothiazolidin-5-ylidene}methyl}furan-2-yl}benzoic acid] | 12.5 | – | – | – | – | – |

Reference: paper PMC4057637, “Efficacy of novel antibacterial compounds targeting histidine kinase YycG protein” (Applied Microbiology and Biotechnology, 2014)
